Laboratory results as given in patent US8236850B2, “Dimeric derivatives of artemisinin and application in anticancer therapy” (Pierre Fabre Medicament, priority 2007, dated 2012).

Key:
A549 cell line (lung) = assay: Cytotoxic activity: inhibition of cell proliferation, residual ATP by luminescence (ATPLite); type: cell-based; details: Homo sapiens, 72 hours of incubation
Protocol: (§1) Cytotoxic activity of the compounds prepared according to the invention was evaluated by measuring inhibition of cell proliferation of tumoral cell lines of human origin, such as the A549 cell line (lung) and the Namalwa cell line (lymphoma). This activity is expressed by IC50, the concentration of the tested product capable of inhibiting cell proliferation by 50%. The method used is a measurement of residual ATP by luminescence after 72 hours of incubation by using the “ATPLite” kit marketed by Perkin Elmer.

[1] = system: Namalwa cell line (lymphoma); assay: as above; type: cell-based; details: Homo sapiens, 72 hours of incubation
Protocol: as §1

SMILES	IC50 (A549 cell line (lung)) [nM]	IC50 [1] [nM]
C[C@@H]1CC[C@H]2C(CSCC3=C(C(F)(F)F)O[C@@H]4O[C@@]5(C)CCC6[C@H](C)CC[C@@H]3[C@]64OO5)=C(C(F)(F)F)O[C@@H]3OC4(C)CCC1[C@]32OO4 (stereo partly shown) [Compound 1]	200	290
C[C@@H]1CC[C@H]2C(C[S+]([O-])CC3=C(C(F)(F)F)O[C@@H]4O[C@@]5(C)CCC6[C@H](C)CC[C@@H]3[C@]64OO5)=C(C(F)(F)F)O[C@@H]3OC4(C)CCC1[C@]32OO4 (stereo partly shown) [Compound 2]	850	1000
C[C@@H]1CC[C@H]2C(CS(=O)(=O)CC3=C(C(F)(F)F)O[C@@H]4O[C@@]5(C)CCC6[C@H](C)CC[C@@H]3[C@]64OO5)=C(C(F)(F)F)O[C@@H]3OC4(C)CCC1[C@]32OO4 (stereo partly shown) [Compound 3]	1200	2300
C[C@@H]1CC[C@H]2C(CSSCC3=C(C(F)(F)F)O[C@@H]4O[C@@]5(C)CCC6[C@H](C)CC[C@@H]3[C@]64OO5)=C(C(F)(F)F)O[C@@H]3OC4(C)CCC1[C@]32OO4 (stereo partly shown) [Compound 4]	84	64
C[C@@H]1CC[C@H]2C(COCCSSCCOCC3=C(C(F)(F)F)O[C@@H]4O[C@@]5(C)CCC6[C@H](C)CC[C@@H]3[C@]64OO5)=C(C(F)(F)F)O[C@@H]3OC4(C)CCC1[C@]32OO4 (stereo partly shown) [Compound 5]	90	50
C[C@@H]1CC[C@H]2C(CSCCSCC3=C(C(F)(F)F)O[C@@H]4O[C@@]5(C)CCC6[C@H](C)CC[C@@H]3[C@]64OO5)=C(C(F)(F)F)O[C@@H]3OC4(C)CCC1[C@]32OO4 (stereo partly shown) [Compound 6]	63	27
C[C@@H]1CC[C@H]2C(CSCCCSCC3=C(C(F)(F)F)O[C@@H]4O[C@@]5(C)CCC6[C@H](C)CC[C@@H]3[C@]64OO5)=C(C(F)(F)F)O[C@@H]3OC4(C)CCC1[C@]32OO4 (stereo partly shown) [Compound 7]	150	100
C[C@@H]1CC[C@H]2C(CSCCCCSCC3=C(C(F)(F)F)O[C@@H]4O[C@@]5(C)CCC6[C@H](C)CC[C@@H]3[C@]64OO5)=C(C(F)(F)F)O[C@@H]3OC4(C)CCC1[C@]32OO4 (stereo partly shown) [Compound 8]	270	64
C[C@@H]1CC[C@H]2C(COCCSCC3=C(C(F)(F)F)O[C@@H]4O[C@@]5(C)CCC6[C@H](C)CC[C@@H]3[C@]64OO5)=C(C(F)(F)F)O[C@@H]3OC4(C)CCC1[C@]32OO4 (stereo partly shown) [Compound 9]	31	24
C[C@@H]1CC[C@H]2C(CN(C)CCN(C)CC3=C(C(F)(F)F)O[C@@H]4O[C@@]5(C)CCC6[C@H](C)CC[C@@H]3[C@]64OO5)=C(C(F)(F)F)O[C@@H]3OC4(C)CCC1[C@]32OO4 (stereo partly shown) [Compound 11]	1100	790
C[C@@H]1CC[C@H]2C(CN(C)CCCN(C)CC3=C(C(F)(F)F)O[C@@H]4O[C@@]5(C)CCC6[C@H](C)CC[C@@H]3[C@]64OO5)=C(C(F)(F)F)O[C@@H]3OC4(C)CCC1[C@]32OO4 (stereo partly shown) [Compound 12]	690	390
C[C@@H]1CC[C@H]2C(COC(=O)c3cccc(C(=O)OCC4=C(C(F)(F)F)O[C@@H]5O[C@@]6(C)CC[C@H]7[C@H](C)CC[C@@H]4[C@@]57OO6)n3)=C(C(F)(F)F)O[C@@H]3O[C@@]4(C)CC[C@@H]1[C@]32OO4 [Compound 25]	140	62
C[C@@H]1CC[C@H]2C(COC(=O)c3cccc(C(=O)OCC4=C(C(F)(F)F)O[C@@H]5O[C@@]6(C)CC[C@H]7[C@H](C)CC[C@@H]4[C@@]57OO6)c3)=C(C(F)(F)F)O[C@@H]3O[C@@]4(C)CC[C@@H]1[C@]32OO4 [Compound 26]	71	54
C[C@@H]1CC[C@H]2C(COC(=O)c3ccc(C(=O)OCC4=C(C(F)(F)F)O[C@@H]5O[C@@]6(C)CC[C@H]7[C@H](C)CC[C@@H]4[C@@]57OO6)s3)=C(C(F)(F)F)O[C@@H]3O[C@@]4(C)CC[C@@H]1[C@]32OO4 [Compound 27]	210	130
C[C@@H]1CC[C@H]2C(CNC(=O)c3cccc(C(=O)NCC4=C(C(F)(F)F)O[C@@H]5O[C@@]6(C)CC[C@H]7[C@H](C)CC[C@@H]4[C@@]57OO6)n3)=C(C(F)(F)F)O[C@@H]3O[C@@]4(C)CC[C@@H]1[C@]32OO4 [Compound 30]	170	72
C[C@@H]1CC[C@H]2C(CNC(=O)c3ccc(C(=O)NCC4=C(C(F)(F)F)O[C@@H]5O[C@@]6(C)CC[C@H]7[C@H](C)CC[C@@H]4[C@@]57OO6)s3)=C(C(F)(F)F)O[C@@H]3O[C@@]4(C)CC[C@@H]1[C@]32OO4 [Compound 31]	220	88
C[C@@H]1CC[C@H]2C(COCc3cnnn3CC3=C(C(F)(F)F)O[C@@H]4O[C@@]5(C)CC[C@@]6(C)[C@H](C)CC[C@@H]3[C@@]46OO5)=C(C(F)(F)F)O[C@@H]3O[C@@]4(C)CC[C@@H]1[C@]32OO4 [Compound 32]	270	130
C[C@@H]1CC[C@H]2C(COCc3cn(CC4=C(C(F)(F)F)O[C@@H]5O[C@]6(C)CC[C@H]7[C@H](C)CC[C@@H]4[C@@]57OO6)nn3)=C(C(F)(F)F)O[C@@H]3O[C@@]4(C)CC[C@@H]1[C@]32OO4 [Compound 33]	110	30
C[C@@H]1CC[C@H]2C(COCc3cccc(COCC4=C(C(F)(F)F)O[C@@H]5O[C@@]6(C)CC[C@H]7[C@H](C)CC[C@@H]4[C@@]57OO6)n3)=C(C(F)(F)F)O[C@@H]3O[C@@]4(C)CC[C@@H]1[C@]32OO4 [Compound 37]	74	30
C[C@@H]1CC[C@H]2C(COCC#CC(O)C3=C(C(F)(F)F)O[C@@H]4O[C@@]5(C)CC[C@H]6[C@H](C)CC[C@@H]3[C@@]46OO5)=C(C(F)(F)F)O[C@@H]3O[C@@]4(C)CC[C@@H]1[C@]32OO4 (stereo partly shown) [Compound 39]	240	160
